Data on 45 compounds can be found in patent publication US20260184708A1, “PYRIDAZINONES AND METHODS OF USE THEREOF” (GFB (ABC), LLC, priority 2017, published 2026).

One assay concerns the target T1, TRPC4 (Homo sapiens, UniProt Q9UBN4).
T1 construct: expressed in transfected cells; host or cells: HEK-TREx (HekTrex-293), cell line ICLN-1694, tetracycline-induced
T1 sequence (Q9UBN4 1-982 isoform Q9UBN4-5): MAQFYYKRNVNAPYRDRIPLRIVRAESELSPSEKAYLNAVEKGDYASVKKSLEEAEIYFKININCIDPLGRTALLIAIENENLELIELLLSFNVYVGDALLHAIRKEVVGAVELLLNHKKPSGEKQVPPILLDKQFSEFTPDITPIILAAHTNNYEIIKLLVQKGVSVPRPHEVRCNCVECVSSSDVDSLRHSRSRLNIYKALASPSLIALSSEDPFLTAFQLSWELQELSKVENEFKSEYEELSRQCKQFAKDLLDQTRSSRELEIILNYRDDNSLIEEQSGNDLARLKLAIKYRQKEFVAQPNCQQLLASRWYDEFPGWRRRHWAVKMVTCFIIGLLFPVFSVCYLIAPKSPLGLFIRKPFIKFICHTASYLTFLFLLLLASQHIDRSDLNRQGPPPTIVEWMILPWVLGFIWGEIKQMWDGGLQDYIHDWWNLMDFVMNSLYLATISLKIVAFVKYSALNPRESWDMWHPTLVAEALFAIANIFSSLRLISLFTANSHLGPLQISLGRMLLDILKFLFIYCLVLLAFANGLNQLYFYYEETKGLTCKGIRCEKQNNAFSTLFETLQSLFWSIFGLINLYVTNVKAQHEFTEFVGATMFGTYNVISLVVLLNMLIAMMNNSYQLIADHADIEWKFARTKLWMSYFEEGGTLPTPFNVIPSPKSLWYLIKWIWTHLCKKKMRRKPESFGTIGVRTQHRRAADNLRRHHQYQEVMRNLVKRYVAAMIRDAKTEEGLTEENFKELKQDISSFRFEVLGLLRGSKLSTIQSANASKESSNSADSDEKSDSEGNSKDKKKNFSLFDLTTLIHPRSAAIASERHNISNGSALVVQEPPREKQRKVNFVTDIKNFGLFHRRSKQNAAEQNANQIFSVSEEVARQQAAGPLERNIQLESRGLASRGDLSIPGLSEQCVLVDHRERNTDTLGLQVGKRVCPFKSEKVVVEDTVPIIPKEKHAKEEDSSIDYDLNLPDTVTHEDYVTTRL
Briefly: TRPC4 FLIPR Assay (HEK-TREx hTRPC4, Englerin A stimulation). The class given is cell-based. As to conditions: Table 8; HEK-TREx hTRPC4; read-out: TRPC4 FLIPR IC50. The procedure:
FLIPR Assay Buffer (Earls Balanced Salt Solution (EBSS)) was prepared as follows:
10-point dose response curves were generated using the Echo-550 acoustic dispenser. Compound source plates were made by serially diluting compound stocks to create 10 mM, 1 mM, and 0.1 mM solutions in DMSO into Echo certified LDV plates. The Echo then serially spotted 100% DMSO stock solutions into source dose response plates to generate a 4-fold dilution scheme. 100% DMSO was added to the spotted dose response plates to bring the final volume to 5 μl. […] of the dose response stock plate was then spotted into pre-incubation and stimulation assay plates. […] of pre-incubation buffer and 100 μl of stimulation buffer was then added to the plates resulting in a final assay test concentration range of 30 μM to 0.0001 μM with a final DMSO concentration of 0.3%.
Experimental Methods: Cells expressing TRPC4 were plated onto 384 well, black pdl-coated microplates and maintained in TRPC4 growth media the day prior to use for experiments. TRPC4 expression was induced by the application of 1 μg/ml tetracycline at the time of plating. […] Cells were incubated at room temperature, protected from light, for 60-90 minutes. After the incubation period, the dye was removed and replaced with 10 μl of EBSS. Cell, pre-incubation and stimulation plates were loaded onto the FLIPR-II and the assay was initiated. The FLIPR measured a 10 second baseline and then added 10 μl of 2× compounds (or controls). Changes in fluorescence were monitored for an additional 5 minutes. After a 5 minute pre-incubation, 20 μl of 2× Englerin A (with 1× compound or controls) was added to the cell plate. The final Engerlin A stimulation concentration in the assay is 100 nM. After the Englerin A addition, changes in fluorescence were monitored for an additional 5 minutes.
Test Agent Effect: Test agent modulation of TRPC4 calcium response was determined as follows. After the Englerin A, fluorescence was monitored for a 5 minute period. The maximum relative fluorescence response (minus the control response of […] of the control inhibitor) was captured and exported from the FLIPR. Test agent effect was calculated as % inhibition using the following formula: % inhibition=((RFU TEST AGENT−Plate Average RFU REF INHIB)/(Plate Average RFU CONTROL−Plate Average RFU REF INHIB))×100
`O=c1[nH]ncc(N2CCc3c(ncn3Cc3ccc(F)cc3C(F)(F)F)C2)c1Cl` [drawing 942]: the IC50 lay in the range of 0.01 to 1000 nM.

For `C[C@H](c1ccccc1)n1cnc2c1CCN(c1cn[nH]c(=O)c1Cl)C2` [drawing 940], the IC50 is 0.01 to 1000 nM.

In the case of `O=c1[nH]ncc(N2CCc3c(ncn3Cc3ccc(F)cc3Cl)C2)c1Cl` [drawing 998], the IC50 fell in the range of 0.01 to 1000 nM.

For the compound `O=c1[nH]ncc(N2CCc3c(ncn3Cc3ccc(F)cc3C(F)F)C2)c1Cl` [drawing 960], the IC50 was in the range of 0.01 to 1000 nM.

In the case of `O=C1CN(c2cn[nH]c(=O)c2Cl)CCN1Cc1ccc(F)cc1Cl` [drawing 1013], the IC50 lay in the range of 0.01 to 1000 nM.

As for `C[C@H](c1ccccc1Cl)n1nnc2c1CCN(c1cn[nH]c(=O)c1Cl)C2` [drawing 995], the IC50 is 0.01 to 1000 nM.

Consider `O=C1CN(c2cn[nH]c(=O)c2Cl)CCN1Cc1ccccc1OC(F)(F)F` [drawing 1015], for which the IC50 lay in the range of 0.01 to 1000 nM.

As for `C[C@@H]1Cc2c(nnn2[C@@H](C)c2ccccc2C(F)(F)F)CN1c1cn[nH]c(=O)c1Cl` [drawing 968], the IC50 was 0.01 to 1000 nM.

On to `Cc1cc(Cl)ccc1CN1CCN(c2cn[nH]c(=O)c2Cl)CC1=O` [drawing 1018], for which the IC50 was in the range of 1000 to 5000 nM.

Take `C[C@@H](c1ccccc1C(F)(F)F)n1nnc2c1CCN(c1cn[nH]c(=O)c1Cl)C2` [drawing 962]: the IC50 was 0.01 to 1000 nM.

As for `C[C@H](c1ccc(F)cc1C(F)(F)F)N1C[C@@H](C)N(c2cn[nH]c(=O)c2Cl)CC1=O` [drawing 992], the IC50 lay in the range of 0.01 to 1000 nM.

For the compound `C[C@@H](c1ccccc1C(F)F)n1nnc2c1CCN(c1cn[nH]c(=O)c1Cl)C2` [drawing 980], the IC50 lay in the range of 0.01 to 1000 nM.

In the case of `CC(c1ccc(F)cc1C(F)F)n1nc(C(N)=O)c2c1CCN(c1cn[nH]c(=O)c1Cl)C2` (stereo not drawn) [drawing 983], the IC50 is 0.01 to 1000 nM.

With `C[C@@H](c1ccccc1C(F)(F)F)n1nnc2c1CCN(c1cn[nH]c(=O)c1C#N)C2`, the IC50 lay within 0.01 to 1000 nM.

For `CNC(=O)c1nn([C@H](C)c2ccccc2C(F)F)c2c1CN(c1cn[nH]c(=O)c1Cl)CC2` [drawing 982], the IC50 is 0.01 to 1000 nM.

`CN(c1ncc2c(n1)CN(c1cn[nH]c(=O)c1Cl)C2)c1ccc(F)cc1Cl` [drawing 1003]: the IC50 fell in the range of 0.01 to 1000 nM.

Turning to `O=C1CN(c2cn[nH]c(=O)c2Cl)CCN1Cc1ccccc1Cl`, the IC50 lay within 0.01 to 1000 nM.

`O=C1CN(c2cn[nH]c(=O)c2Cl)CCN1Cc1ccc(F)cc1F` [drawing 1014]: the IC50 lay within 1000 to 5000 nM.

With `C[C@@H](c1ccccc1C(F)(F)F)N1CCN(c2cn[nH]c(=O)c2Cl)CC1=O` [drawing 987], the IC50 was 0.01 to 1000 nM.

Regarding `COCc1ccccc1Cn1cnc2c1CCN(c1cn[nH]c(=O)c1Cl)C2` [drawing 965], the IC50 is 0.01 to 1000 nM.

Regarding `O=c1[nH]ncc(N2CCc3c(ncn3Cc3ccccc3C(F)(F)F)C2)c1Cl` [drawing 944], the IC50 fell in the range of 0.01 to 1000 nM.

Regarding `CC(c1ccc(F)cc1C(F)F)n1[nH]c(=O)c2c1CCN(c1cn[nH]c(=O)c1Cl)C2` (stereo not drawn), the IC50 lay within 0.01 to 1000 nM.

With `Cc1ccccc1CN1C[C@@H](C)N(c2cn[nH]c(=O)c2Cl)CC1=O`, the IC50 was 5000 to 10000 nM.

`N#Cc1c(N2CCc3c(ncn3Cc3ccccc3C(F)(F)F)C2)cn[nH]c1=O` [drawing 956]: the IC50 was in the range of 1000 to 5000 nM.

For `CCc1nccc(C)c1CN1CCN(c2cn[nH]c(=O)c2Cl)CC1`, the IC50 lay within 1000 to 5000 nM.

In the case of `CCc1ncccc1N(C)c1ncc2c(n1)CN(c1cn[nH]c(=O)c1Cl)C2` [drawing 1006], the IC50 lay in the range of 0.01 to 1000 nM.

As to `O=c1[nH]ncc(N2CCc3c(cnn3Cc3ccc(F)cc3C(F)(F)F)C2)c1Cl` [drawing 951], the IC50 fell in the range of 0.01 to 1000 nM.

For the compound `O=c1[nH]ncc(N2CCc3c(Cc4ccc(F)cc4C(F)(F)F)n[nH]c3C2)c1Cl` [drawing 1005], the IC50 is 0.01 to 1000 nM.

With `O=c1[nH]ncc(N2CCc3c(nnn3Cc3ccccc3C(F)(F)F)C2)c1Cl` [drawing 948], the IC50 lay in the range of 0.01 to 1000 nM.

With `O=c1[nH]ncc(N2CCc3c(ncn3Cc3ccccc3C(F)(F)F)C2)c1Br` [drawing 950], the IC50 is 0.01 to 1000 nM.

Take `C[C@@H](c1ccc(F)cc1C(F)(F)F)n1nnc2c1CCN(c1cn[nH]c(=O)c1Cl)C2`: the IC50 was 0.01 to 1000 nM.

Turning to `C[C@H](c1ccc(F)cc1C(F)(F)F)n1nnc2c1CCN(c1cn[nH]c(=O)c1Cl)[C@H]2C` [drawing 976], the IC50 was in the range of 0.01 to 1000 nM.

Regarding `O=c1[nH]ncc(N2CCc3c(ncn3-c3ccccc3C(F)(F)F)C2)c1Cl` [drawing 954], the IC50 was 1000 to 5000 nM.

With `CCS(=O)(=O)c1nc2c(n1Cc1ccccc1C(F)(F)F)CCN(c1cn[nH]c(=O)c1Cl)C2` [drawing 971], the IC50 was 0.01 to 1000 nM.

With `C[C@@H](c1ccccc1Cl)n1nnc2c1CCN(c1cn[nH]c(=O)c1Cl)C2` [drawing 1001], the IC50 lay in the range of 0.01 to 1000 nM.

`CCc1ncccc1CN1CCN(c2cn[nH]c(=O)c2C#N)CC1`: the IC50 was in the range of 5000 to 10000 nM.

In the case of `N#Cc1c(N2CCc3c(nnn3Cc3ccccc3C(F)(F)F)C2)cn[nH]c1=O` [drawing 959], the IC50 is 1000 to 5000 nM.

As for `C[C@H](c1ccccc1C(F)(F)F)n1nc(C(N)=O)c2c1CCN(c1cn[nH]c(=O)c1Cl)C2` [drawing 990], the IC50 was in the range of 0.01 to 1000 nM.

As for `CS(=O)(=O)c1nc2c(n1Cc1ccccc1C(F)(F)F)CCN(c1cn[nH]c(=O)c1Cl)C2` [drawing 1002], the IC50 is 0.01 to 1000 nM.

For the compound `Cc1ccccc1CN1CCN(c2cn[nH]c(=O)c2Br)CC1=O`, the IC50 fell in the range of 0.01 to 1000 nM.

Consider `Cc1ccccc1[C@H](C)N1CCN(c2cn[nH]c(=O)c2Cl)CC1=O` [drawing 1020], for which the IC50 fell in the range of 10000 to 500000 nM.

As for `C[C@@H]1CN(Cc2ccccc2C(F)(F)F)CCN1c1cn[nH]c(=O)c1Cl` [drawing 1016], the IC50 was 5000 to 10000 nM.

Turning to `C[C@H](c1ccccc1C(F)(F)F)n1nnc2c1CCN(c1cn[nH]c(=O)c1Cl)[C@H]2C` [drawing 970], the IC50 is 0.01 to 1000 nM.

As to `O=c1[nH]ncc(N2CCc3c(c(=O)[nH]n3Cc3ccccc3C(F)(F)F)C2)c1Cl` [drawing 972], the IC50 was 0.01 to 1000 nM.

The same assay, now with this note: Table 10; HEK-TREx hTRPC4; read-out: TRPC4-FLIPR ICSO.
Take `CN1CCN(Cc2nn(Cc3ccccc3C(F)F)c3c2CN(c2cn[nH]c(=O)c2Cl)CC3)C(=O)C1` [drawing 1091]: the IC50 lay within 0.01 to 1000 nM.
